From patent US20250228880A1, “REDOX-ACTIVE COMPOUNDS AND RELATED COMPOUNDS, COMPOSITIONS, METHODS AND SYSTEMS” (CALIFORNIA INSTITUTE OF TECHNOLOGY, priority 2008, published 2025)
Several values for one entry are separate records, joined by “and”; a condition that tells them apart may be missing. Equal values may be shown once. Entries after “also recorded” stand apart in the source; their conditions may differ. Read-outs that look alike come from different tables or passages of the source.

What was measured:
[1] = literature values (footnotes a, c, d, e); oxidized form; cited from earlier work
[2] = test system: P. aeruginosa PA14 Δphz mutant; assay: Anaerobic survival in bulk electrolysis bioreactor (viable cell counts, CFU); assay type: cell-based, Pseudomonas aeruginosa; conditions: for Support survival?: anaerobic survival of Δphz over 7 days, 10^9 cells/mL, 20 mM D-glucose, about 90 µM compound, electrode at +0.2 V vs. NHE, CFU on LB agar
Experimental: Microbiological methods. P. aeruginosa strain UCBPP-PA14 with deletions of two redundant phenazine biosynthetic operons phzA1-G1 and phzA2-G2, hereafter referred to as the Δphz mutant, was cultivated aerobically at 37° C. in Luria-Bertani (LB) broth (Fisher Scientific) to stationary phase. A washing procedure using centrifugation to collect cell pellets and vortexing to resuspend cell pellets in sterile PBS buffer (recipe) was repeated twice. For centrifugation, the cultures were split into 50 mL sterile centrifuge tubes and centrifuged for 8 minutes at 6000 g, at 4° C. After washing, cell culture was concentrated by resuspending pellets in PBS buffer with one-tenth of original cultural volume. Optical density of this culture was measured at 500 nm using Beckman Coulter D U 800 spectrophotometer. Dilution was performed to yield the OD reading below 0.8. The culture aliquots were then transferred into electrochemical cells with oxygen-free minimal salt medium (20 mM glucose as the carbon source) to serve as the cultures electrochemical studies (see next section for details).
Survival experiments in electrochemical setup. Electrochemical measurements were performed with a Gamry G- potentiostat. All experiments were conducted in an O2— and H2— free glovebox (MBraun) at 30° C. and in the dark. All measured potentials were referenced to a Ag/AgCl electrode (RE-5B, BASi). Reported potentials were referenced to the Normal Hydrogen Electrode NHE (V vs. NHE=V vs. Ag/AgCl+207 mV) to permit comparisons with other studies. A graphite rod (6.15 mm dia ×152 mm long, Alfa Aesar) was used as the working electrode, and the operating surface area was 6 cm^2. The counter electrode was made from a platinum mesh (Alfa Aesar) soldered to a copper wire. The working electrode was in a sample compartment together with the reference electrode. The counter electrode was in another compartment isolated from the working electrode. The two compartments were joined by a fritted glass junction. The controlled potential bulk electrolysis was set at 0 V vs. Ag/AgCl. This potential is mild enough to only oxidize reduced phenazines, but not other components in the cultural medium.
To test whether phenazine electron shuttling can help P. aeruginosa survive, 100 µM phenazine, 20 mM glucose, high or low initial cell densities in the range of 10^9 cells/mL or 10^7 cells/mL were added to the medium to give total 100 mL suspension in the compartment along with the working and reference electrodes, and the potential was applied at 0 V (vs. Ag/AgCl) for 7 days. Cell suspension aliquots were taken as a function of time for viable colony counts. Current and charge transferred were recorded continuously. Cultures without phenazine, or without the potential applied, or without both were served as the controls. To confirm that glucose is used as the carbon source in the case of survival, experiments with or without glucose addition were compared.
To investigate the effect of redox-active small molecules on anaerobic survival of redox active organisms, Applicants tested the effect of redox-active molecule in P. aeruginosa PA14. In particular, Applicants assembled bulk electrolysis-based glass bioreactors housed within an O2— and H2— free glovebox (MBraun) and controlled by a multichannel potentiostat (Gamry, Series G 300) outside the glovebox. Each bioreactor held a graphite rod working electrode (Alfa Aesar) with an operating surface area of 6 cm^2, a Ag/AgCl reference electrode (BASi, RE-5B) with a constant potential of +0.207 V vs. the normal hydrogen electrode (NHE), and about 100 mL MOPS culture medium [100 mM MOPS at pH 7.2, 93 mM NH4Cl, 43 mM NaCl, 2.2 mM KH2PO4, 1 mM MgSO4, […]](modified from ref. (Palmer, K. L., L. M. Mashburn, P. K. Singh, and M. Whiteley. 2005. Cystic fibrosis sputum supports growth and cues key aspects of Pseudomonas aeruginosa physiology. Journal of Bacteriology 187:5267-5277)). […]

[3] = test system: P. aeruginosa PA14 Δphz mutant; assay: Reduction by PA14 (colour change in survival control experiments without poised potential); assay type: cell-based, Pseudomonas aeruginosa; conditions: intracellular reduction by Δphz cells
[4] = test system: Pseudomonas aeruginosa PA14 phenazine null mutant; assay: Colony morphology assay; assay type: cell-based; conditions: pyocyanin added to the growth medium (50 μM HPLC-purified, 1% tryptone, 1% agar plates)
Experimental: In particular, in FIG. 8 is shown how the phenazine null mutant forms smooth colonies in the presence of exogenous phenazines. […] Image was taken after 5 days.
Colony morphology assay: colony morphology assay was performed with Pseudomonas aeruginosa and Streptomyces coelicolor as described herein below: a) Pseudomonas aeruginosa PA 14: Strains were grown in LB medium to late exponential phase, then 10 μl were spotted onto 1% agar plates containing 10 g/L Tryptone Broth, supplemented with […] Congo Red and […] Coomassie Blue as described previously (L. Friedman, R. Kolter, Mot Microbial 51, 675 (2004)). Plates were incubated at room temperature. Colonies were imaged using an Epson Perfection 2400 Photo Scanner at 600 dpi resolution, Nikon stereomicroscope or a digital microscope (Proscope). b) Streptomyces coelicolor A3(2): 10 µl of a spore suspension in water was spotted onto plates with R5-medium. Plates were incubated at room temperature for six days. Colonies were imaged using a Nikon stereomicroscope.

[5] = Reduction potential E0' (cyclic voltammetry); assay type: physicochemical; conditions: measured in aqueous solution at pH 7 in this study (footnote b)

C[n+]1ccc(-c2cc[n+](C)cc2)cc1 [Paraquat]
E^0′ (vs. NHE) [1]: −446 mV and −446^e mV
Support survival? [2]: No
Support survival? ([2]; listed as paraquat): cannot support anaerobic survival of Δphz
Reduction by PA14? [3]: No
Reduction by PA14? ([3]; listed as paraquat): cannot be reduced by Δphz

O=C(O)c1cccc2nc3ccccc3nc12 [PCA, phenazine-1-carboxylic acid]
E^0′ (vs. NHE) [1]: −114^a mV
Support survival? [2]: promote anaerobic survival and Yes
Reduction by PA14? [3]: Yes

O=C(O)Cc1cc(O)ccc1O [HMA, Homogentisic acid]
Support survival? [2]: cannot support Δphz survival and No

C[n+]1c2ccccc2nc2c([O-])cccc21 [PYO, Pyocyanin]
colony morphology of the phenazine null mutant [4]: smooth compact colonies
E^0′ (vs. NHE) [1]: −40^a mV
Support survival? [2]: promote anaerobic survival and Yes
survival vs. growth at low cell density ([2]; viable cells at 10^7 CFU/mL, data not shown): supported only survival but not growth
drop of viable cells from the original CFU ([2]; without D-glucose, with PYO and the poised potential, by day 6): 4 orders of magnitude
Reduction by PA14? [3]: Yes

Oc1cccc2nc3ccccc3nc12 [1-OHPHZ, 1-hydroxyphenazine]
E^0′ (vs. NHE) [1]: −174^a mV
Support survival? [2]: promote anaerobic survival and Yes
Reduction by PA14? [3]: Yes

CN(C)c1ccc2nc3ccc(=[N+](C)C)cc-3sc2c1 [MB, Methylene blue]
E^0′ (vs. NHE) [5]: 0 mV
E^0′ (vs. NHE) [1]: +11 mV
Support survival? [2]: cannot support Δphz survival and No
drop of viable cells ([2]; regardless of bioreactor experimental conditions, 7 days): 3 orders of magnitude
Reduction by PA14? [3]: reduced intracellularly and Yes

O=C1c2ccc(S(=O)(=O)O)cc2C(=O)c2ccc(S(=O)(=O)O)cc21 [2,6-AQDS]
E^0′ (vs. NHE) [1]: −184^d mV
Support survival? [2]: No
Reduction by PA14? [3]: only a small portion of 2,6-AQDS was reduced; also recorded: Yes (very slowly)
